# Reference: article doi:10.1101/2023.12.04.569845, “Identification of 4-(6-((2-methoxyphenyl)amino)pyrazin-2-yl)benzoic acids as CSNK2A inhibitors with antiviral activity and improved selectivity over PIM3” (bioRxiv, 2023)
# Where two headings read alike, the source gives them in different places.
# How the values were obtained:
# Experiment in all cases: biochemical
# Design in all cases: Thermal shift (DSF, SYPRO Orange) Tm shift of recombinant kinase domains at 10 uM compound
# GAK = target: T1, GAK (Homo sapiens, UniProt O14976)
# T1 sequence (O14976 1-1311): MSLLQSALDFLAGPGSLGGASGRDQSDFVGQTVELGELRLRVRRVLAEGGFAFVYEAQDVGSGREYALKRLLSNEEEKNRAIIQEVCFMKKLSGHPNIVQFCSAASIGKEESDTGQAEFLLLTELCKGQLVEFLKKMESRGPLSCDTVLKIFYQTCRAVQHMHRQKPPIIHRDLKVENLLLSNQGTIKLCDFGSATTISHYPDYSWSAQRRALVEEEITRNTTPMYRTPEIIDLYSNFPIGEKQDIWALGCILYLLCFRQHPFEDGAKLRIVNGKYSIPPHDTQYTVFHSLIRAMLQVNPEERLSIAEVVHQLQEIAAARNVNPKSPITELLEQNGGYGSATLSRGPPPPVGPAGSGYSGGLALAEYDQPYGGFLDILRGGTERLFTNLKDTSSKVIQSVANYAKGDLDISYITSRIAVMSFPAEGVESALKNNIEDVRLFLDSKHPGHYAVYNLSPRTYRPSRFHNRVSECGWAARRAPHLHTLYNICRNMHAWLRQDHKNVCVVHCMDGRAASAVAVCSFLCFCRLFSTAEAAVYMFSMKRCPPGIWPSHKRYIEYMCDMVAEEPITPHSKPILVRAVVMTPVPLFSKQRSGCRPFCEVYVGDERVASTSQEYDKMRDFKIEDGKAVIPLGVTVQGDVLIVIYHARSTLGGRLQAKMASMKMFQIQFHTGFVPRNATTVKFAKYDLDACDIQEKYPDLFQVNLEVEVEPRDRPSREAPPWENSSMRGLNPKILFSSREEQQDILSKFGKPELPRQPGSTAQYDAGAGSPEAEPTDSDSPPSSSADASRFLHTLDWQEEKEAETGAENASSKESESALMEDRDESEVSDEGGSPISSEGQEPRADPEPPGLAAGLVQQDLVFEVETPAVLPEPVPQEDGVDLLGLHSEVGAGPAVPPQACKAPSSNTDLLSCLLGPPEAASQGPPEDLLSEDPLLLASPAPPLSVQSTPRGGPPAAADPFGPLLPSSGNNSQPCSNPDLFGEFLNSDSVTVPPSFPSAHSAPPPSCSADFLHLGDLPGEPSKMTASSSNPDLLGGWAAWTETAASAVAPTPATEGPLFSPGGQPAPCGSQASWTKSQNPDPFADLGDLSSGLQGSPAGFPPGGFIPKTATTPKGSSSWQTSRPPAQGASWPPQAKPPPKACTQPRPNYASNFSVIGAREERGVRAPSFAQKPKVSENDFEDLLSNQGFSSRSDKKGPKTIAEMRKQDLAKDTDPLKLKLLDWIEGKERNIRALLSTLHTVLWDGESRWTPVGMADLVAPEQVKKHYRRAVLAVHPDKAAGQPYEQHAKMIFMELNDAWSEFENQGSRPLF
# OSR1 = target: T2, OSR1 (Homo sapiens, UniProt O95747)
# T2 construct: gene OXSR1
# TLK1 = target: T3, TLK1 (Homo sapiens, UniProt Q9UKI8)
# T3 sequence (Q9UKI8 1-766): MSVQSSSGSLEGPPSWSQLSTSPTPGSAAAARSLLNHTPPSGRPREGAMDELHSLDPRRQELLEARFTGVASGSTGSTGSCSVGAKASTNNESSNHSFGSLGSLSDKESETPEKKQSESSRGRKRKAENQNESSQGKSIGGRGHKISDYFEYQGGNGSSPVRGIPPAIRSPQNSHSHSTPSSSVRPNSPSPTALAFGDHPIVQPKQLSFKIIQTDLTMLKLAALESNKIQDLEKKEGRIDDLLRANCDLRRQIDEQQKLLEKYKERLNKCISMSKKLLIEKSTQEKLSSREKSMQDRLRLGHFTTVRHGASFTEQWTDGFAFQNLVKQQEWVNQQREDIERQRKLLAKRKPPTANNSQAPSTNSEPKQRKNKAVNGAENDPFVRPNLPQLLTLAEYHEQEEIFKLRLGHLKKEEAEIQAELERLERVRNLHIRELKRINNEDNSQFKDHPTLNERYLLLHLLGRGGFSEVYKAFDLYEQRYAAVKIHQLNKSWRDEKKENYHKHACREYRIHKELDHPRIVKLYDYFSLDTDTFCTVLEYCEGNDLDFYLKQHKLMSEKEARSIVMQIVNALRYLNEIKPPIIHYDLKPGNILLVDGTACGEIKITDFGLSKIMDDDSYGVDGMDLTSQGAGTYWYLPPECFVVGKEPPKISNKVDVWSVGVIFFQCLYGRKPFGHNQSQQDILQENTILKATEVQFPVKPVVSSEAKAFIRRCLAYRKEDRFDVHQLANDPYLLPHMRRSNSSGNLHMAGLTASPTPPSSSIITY
# PHKg2 = target: T4, PHKg2 (Homo sapiens, UniProt P15735)
# T4 construct: kinase domain
# T4 sequence (P15735 1-406): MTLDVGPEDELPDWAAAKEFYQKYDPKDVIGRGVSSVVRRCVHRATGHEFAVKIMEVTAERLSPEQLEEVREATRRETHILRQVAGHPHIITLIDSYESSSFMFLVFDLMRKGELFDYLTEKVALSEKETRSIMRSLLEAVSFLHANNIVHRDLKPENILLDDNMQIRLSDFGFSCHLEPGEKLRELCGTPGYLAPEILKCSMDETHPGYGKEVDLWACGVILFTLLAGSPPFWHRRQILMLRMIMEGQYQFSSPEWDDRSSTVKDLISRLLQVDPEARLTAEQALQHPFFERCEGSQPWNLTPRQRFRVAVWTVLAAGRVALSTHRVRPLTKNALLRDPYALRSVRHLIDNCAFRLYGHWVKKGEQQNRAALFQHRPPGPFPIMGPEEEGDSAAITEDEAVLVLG
# ABL1 = ABL1 (Homo sapiens, UniProt P00519)
# ABL1, sequence (P00519 whole entry): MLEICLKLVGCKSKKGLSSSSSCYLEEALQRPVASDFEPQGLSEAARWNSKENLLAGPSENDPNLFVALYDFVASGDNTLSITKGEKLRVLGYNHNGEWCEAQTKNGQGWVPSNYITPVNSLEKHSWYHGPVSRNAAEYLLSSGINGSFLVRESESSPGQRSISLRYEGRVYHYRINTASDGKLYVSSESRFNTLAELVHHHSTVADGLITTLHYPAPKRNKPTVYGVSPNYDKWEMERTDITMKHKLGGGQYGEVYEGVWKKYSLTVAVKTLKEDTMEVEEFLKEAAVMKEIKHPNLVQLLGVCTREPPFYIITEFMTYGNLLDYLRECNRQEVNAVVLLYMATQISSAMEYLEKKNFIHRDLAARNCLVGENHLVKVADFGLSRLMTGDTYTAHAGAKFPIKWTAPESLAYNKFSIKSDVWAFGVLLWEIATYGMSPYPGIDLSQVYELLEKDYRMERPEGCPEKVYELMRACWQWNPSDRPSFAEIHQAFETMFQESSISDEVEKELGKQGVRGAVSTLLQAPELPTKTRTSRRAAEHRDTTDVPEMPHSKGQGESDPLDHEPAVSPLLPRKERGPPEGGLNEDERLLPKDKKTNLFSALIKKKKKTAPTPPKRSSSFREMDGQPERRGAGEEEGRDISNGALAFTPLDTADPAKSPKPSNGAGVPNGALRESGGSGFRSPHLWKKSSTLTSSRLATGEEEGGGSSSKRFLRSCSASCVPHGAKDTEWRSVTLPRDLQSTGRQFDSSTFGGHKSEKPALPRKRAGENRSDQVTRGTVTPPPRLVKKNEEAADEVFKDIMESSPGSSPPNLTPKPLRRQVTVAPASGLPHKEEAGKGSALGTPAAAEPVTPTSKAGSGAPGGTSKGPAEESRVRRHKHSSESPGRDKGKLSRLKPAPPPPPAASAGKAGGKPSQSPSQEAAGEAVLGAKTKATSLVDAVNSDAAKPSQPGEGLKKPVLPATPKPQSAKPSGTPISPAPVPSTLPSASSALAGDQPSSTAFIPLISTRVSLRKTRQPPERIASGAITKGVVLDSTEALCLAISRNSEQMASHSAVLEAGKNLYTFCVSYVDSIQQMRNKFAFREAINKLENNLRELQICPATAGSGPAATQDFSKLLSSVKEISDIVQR
# T2 sequence (O95747 whole entry): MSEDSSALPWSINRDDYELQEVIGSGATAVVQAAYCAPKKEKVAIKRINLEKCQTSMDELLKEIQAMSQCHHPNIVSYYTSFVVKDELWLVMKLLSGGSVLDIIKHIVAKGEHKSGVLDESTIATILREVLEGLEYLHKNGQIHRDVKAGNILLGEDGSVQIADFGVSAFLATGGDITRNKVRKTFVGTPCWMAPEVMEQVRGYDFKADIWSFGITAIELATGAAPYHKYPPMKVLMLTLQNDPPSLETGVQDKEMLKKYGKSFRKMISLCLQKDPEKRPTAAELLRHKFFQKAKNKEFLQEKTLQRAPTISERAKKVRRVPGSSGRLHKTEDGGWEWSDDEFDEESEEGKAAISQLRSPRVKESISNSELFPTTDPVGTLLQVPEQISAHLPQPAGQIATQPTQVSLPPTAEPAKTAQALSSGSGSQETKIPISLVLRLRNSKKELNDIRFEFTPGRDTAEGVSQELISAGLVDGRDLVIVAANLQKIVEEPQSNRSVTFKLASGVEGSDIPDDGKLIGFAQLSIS
smiles,measurement,setting,value
COc1ccc(OC(C)C)cc1Nc1cncc(-c2ccc(C(=O)O)cc2)n1 [7c],ΔTm at 10 µM,GAK; read-out: 7c,7 °C
same,ΔTm at 10 µM,OSR1; read-out: 7c,0 °C
same,ΔTm at 10 µM,TLK1; read-out: 7c,-1 °C
same,ΔTm at 10 µM,PHKg2; read-out: 7c,3 °C
same,ΔTm at 10 µM,ABL1; read-out: 7c,7 °C
"CC(C)Nc1ccc2cnn(-c3cncc(-c4ccc(C(=O)O)cc4)n3)c2c1 [compound 2, 2]",ΔTm at 10 µM,GAK; read-out: 2,11 °C
same,ΔTm at 10 µM,OSR1; read-out: 2,-1 °C
same,ΔTm at 10 µM,TLK1; read-out: 2,1 °C
same,ΔTm at 10 µM,PHKg2; read-out: 2,8 °C
same,ΔTm at 10 µM,ABL1; read-out: 2,7 °C
CC(C)Oc1ccc2ccn(-c3cncc(-c4ccc(C(=O)O)cc4)n3)c2c1 [6c],ΔTm at 10 µM,GAK; read-out: 6c,9 °C
same,ΔTm at 10 µM,OSR1; read-out: 6c,-2 °C
same,ΔTm at 10 µM,TLK1; read-out: 6c,-1 °C
same,ΔTm at 10 µM,PHKg2; read-out: 6c,5 °C
same,ΔTm at 10 µM,ABL1; read-out: 6c,8 °C
